Measurements taken from patent EP4792822A1, “USE OF PEPTIDE AMIDE COMPOUND IN PREPARATION OF DRUG FOR […] AND VOMITING” (Haisco Pharmaceutical Group Co., Ltd., priority 2023, dated 2025).

Test system: subjects undergoing elective abdominal surgery under general anaesthesia
Experiment: Example 2: placebo/active-controlled clinical study of compound 1 injection for postoperative analgesia (flurbiprofen axetil rescue; nausea and vomiting recorded)
Type: in vivo, patients
Procedure: This study was a multicentre, randomised, double-blind, placebo/active-controlled study. About 387 subjects undergoing elective abdominal surgery under general anaesthesia were planned to be enrolled and randomised to three groups: the compound 1 group (129 subjects), the tramadol group (129 subjects), and the placebo group (129 subjects).
After the end of surgery, MOAA/S scores were assessed every 5 ± 1 min. Once the subjects regained consciousness (defined as the first MOAA/S score of 5), the first resting pain intensity assessment was initiated within 5 min [using the numeric rating scale (NRS), where 0-10 represent varying degrees of pain: 0 represents no pain, higher numbers represent more severe pain, and 10 represents the most severe pain]. It was recommended that the interval between two NRS assessments not exceed 30 min. Within 4 h after the end of surgery, subjects who met all inclusion criteria and none of the exclusion criteria were randomised at a 1 : 1 : 1 ratio into the compound 1 group, the tramadol group or the placebo group. It was recommended that randomisation be performed within 10 min after the first NRS score ≥ 4.
After successful randomisation, to prevent the subjects from enduring pain for a long time, the first dose of compound 1 injection (1 µg/kg/dose), tramadol hydrochloride injection (50 mg/dose), or placebo injection was administered to the subjects by the investigator as soon as possible (recommended within 15 min after successful randomisation). The end time of the first postoperative administration of the study drug was recorded as 0 min. At 8 h (± 15 min) and 16 h (± 15 min) after the end of the first administration, a single corresponding dose of the compound 1 injection, tramadol hydrochloride injection, or placebo injection was administered to the subjects, for a total of three administrations.
Resting NRS score assessments were performed in subjects at 15 min ± 5 min, 30 min ± 5 min, 1 h ± 5 min, 2 h ± 15 min, 4 h ± 15 min, 8 h ± 30 min (within 30 min before the second administration of the study drug), 12 h ± 30 min, 16 h ± 30 min (within 30 min before the third administration of the study drug), 20 h ± 30 min, and 24 h ± 1 h after the end of the first administration of the study drug. The NRS score for resting pain refers to the NRS score assessed when the subject is at rest (e.g., sitting or lying still). If the subject was unconscious at a scheduled NRS assessment time point, the score was recorded as follows: if the previous NRS score was ≥ 2, the current NRS score was recorded as 2; if the previous NRS score was < 2, the current NRS score was recorded as the previous score. Meanwhile, it was documented that the subject was unconscious at the time of assessment.
A flurbiprofen axetil injection was administered via intravenous injection for rescue treatment if the subject complained of pain at any time point after the first administration of the study drug, and the resting pain NRS score was ≥ 4. It was recommended that the time from the subject's NRS assessment to actual administration of flurbiprofen axetil injection be ≤ 30 min; an initial intravenous dose of 50 mg be administered, followed by additional doses as needed. It was also recommended that the interval between two rescue treatments be ≥ 3 h and that the interval between rescue medication and study drug administration be ≥ 1 h. However, rescue treatment could be given at any time for severe pain. […] Rescue details (including resting NRS score before rescue, the time of each use of rescue medication, the dosage of rescue medication, etc.) were recorded truthfully.
Prophylactic antiemetic treatment was prohibited during the study. After the first postoperative administration, the investigator administered antiemetic agents based on the occurrence of nausea and vomiting in the subject, and the dosage of the antiemetic agents was recorded. […]

[1] = Example 2, safety analysis set, N = 129, 1 µg/kg/dose, three administrations
[2] = Example 2, listed as compound 1
[3] = compared with tramadol and placebo
[4] = within 0-12 h and 0-24 h after the first postoperative administration, compared with tramadol and placebo
[5] = within 0-24 h, compared with tramadol and placebo

CC(=O)N1CC2(CCN(C(=O)[C@@H](CCCCN)NC(=O)[C@@H](CC(C)C)NC(=O)[C@@H](Cc3ccccc3)NC(=O)[C@H](N)Cc3ccccc3)CC2)C1 [Compound 1, (2R)-N-[(1R)-1-(2-acetyl-2,7-diazaspiro[3.5]nonane-7-carbonyl)-5-amino-pentyl]-2-[[(2R)-2-[[(2R)-2-amino-3-phenyl-propionyl]amino]-3-phenylpropionyl]amino]-4-methyl-pentanamide]
Change in incidence of nausea relative to placebo (Example 2): 50% reduction | Change in incidence of vomiting relative to placebo (Example 2): 47.9% reduction | overall safety and tolerability (Example 2): good overall safety and tolerability | serious adverse events (Example 2): No serious adverse events occurred | Nausea (incidence) [1]: 10.1% | Vomiting (incidence) [1]: 8.5% | Change in incidence of nausea relative to placebo [2]: 50 % reduction | Change in incidence of vomiting relative to placebo [2]: 47.9 % reduction | SPID0-24 h after the first postoperative administration (compared with placebo): superior to that in the placebo group | PID at each time point [3]: comparable to those in the tramadol group and significantly lower than those in the placebo group | SPID0-12 h after the first postoperative administration [3]: comparable to those in the tramadol group and significantly lower than those in the placebo group | duration of analgesia [3]: comparable to those in the tramadol group and significantly longer than those in the placebo group | incidence of decreased thyroid-stimulating hormone [3]: slightly higher than that in the tramadol group and the placebo group | incidences of nausea and vomiting [3]: lower than those in the tramadol group and the placebo group | subject and investigator satisfaction scores for postoperative analgesia [3]: generally comparable to those in the tramadol group and significantly higher than those in the placebo group | time to the first use of rescue analgesic agents [3]: comparable to those in the tramadol group and significantly longer than those in the placebo group | SPID0-24 h after the first postoperative administration (compared with tramadol injection (50 mg/dose)): non-inferior to that in the tramadol injection group | effect on PONV in patients after abdominal surgery (summary of both Phase III studies (Example 2)): preventive and/or alleviating effect on PONV | mean cumulative dosage of rescue analgesic agents [4]: comparable to those in the tramadol group and significantly lower than those in the placebo group | proportion of subjects with NRS scores ≤ 3 [4]: generally comparable to those in the tramadol group and significantly higher than those in the placebo group | cumulative dosage of other antiemetic agents [5]: higher than those in the tramadol group and the placebo group | proportion of subjects using other antiemetic agents [5]: slightly lower than those in the tramadol group and the placebo group | proportion of subjects using tropisetron and the cumulative dosage (within 0-24 h after the first administration, compared with tramadol and placebo): significantly lower than those in the tramadol group and the placebo group | proportion of subjects using rescue analgesic agents (within 0-24 h after the first postoperative administration, compared with tramadol and placebo): comparable to those in the tramadol group and significantly lower than those in the placebo group
